Assay results from US10150760B2, “Compounds for use in preparing heterocyclic triazole agonists of the APJ receptor” (AMGEN INC., priority 2016, dated 2018).

Biological target: human APJ receptor (Homo sapiens (Human), UniProt P35414)
Test: [35S]GTPγS binding assay on membranes from CHO cells stably expressing human APJ receptor
Type: biochemical
Details: read-out: Activity hAPJ SPA EC50 IP
Procedure, shortened: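 Membranes from CHO cells stably expressing human APJ incubated with ligand, 0.2 nM [35S]GTPγS and WGA SPA beads in HEPES pH 7.5 with 5 mM MgCl2, 200 mM NaCl, 3 μM GDP, 90 min at RT. Nonspecific binding defined with 100 μM GTPγS; EC50 by non-linear regression.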

Sequence of human APJ receptor (P35414 whole entry): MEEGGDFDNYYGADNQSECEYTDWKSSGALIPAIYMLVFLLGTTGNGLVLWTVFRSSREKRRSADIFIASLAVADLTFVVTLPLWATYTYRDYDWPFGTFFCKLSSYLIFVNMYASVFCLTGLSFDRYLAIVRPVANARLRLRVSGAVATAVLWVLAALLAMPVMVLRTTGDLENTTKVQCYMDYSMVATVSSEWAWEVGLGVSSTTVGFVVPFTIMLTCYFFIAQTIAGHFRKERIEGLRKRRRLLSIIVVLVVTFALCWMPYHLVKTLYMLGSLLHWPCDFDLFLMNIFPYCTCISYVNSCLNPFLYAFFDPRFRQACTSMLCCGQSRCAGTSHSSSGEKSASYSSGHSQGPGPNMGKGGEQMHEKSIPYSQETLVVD

| Compound | EC50 [nM] |
| --- | --- |
| CO[C@H](c1ncc(Cl)cn1)[C@H](C)S(=O)(=O)Nc1nnc([C@H]2COCCO2)n1C(C)C (single isomer, unassigned) [Example 301.0, (1R,2S)-N-(5-((S)-1,4-dioxan-2-yl)-4-isopropyl-4H-1,2,4-triazol-3-yl)-1-(5-chloropyrimidin-2-yl)-1-methoxypropane-2-sulfonamide or (1R,2S)-N-(5-((R)-1,4-dioxan-2-yl)-4-isopropyl-4H-1,2,4-triazol-3-yl)-1-(5-chloropyrimidin-2-yl)-1-methoxypropane-2-sulfonamide] | 2900 |
| (1R,2S)-N-(5-((R)-1,4-dioxan-2-yl)-4-(1-(pyridin-3-yl)cyclopropyl)-4H-1,2,4-triazol-3-yl)-1-(5-chloropyrimidin-2-yl)-1-methoxypropane-2-sulfonamide or (1R,2S)-N-(5-((S)-1,4-dioxan-2-yl)-4-(1-(pyridin-3-yl)cyclopropyl)-4H-1,2,4-triazol-3-yl)-1-(5-chloropyrimidin-2-yl)-1-methoxypropane-2-sulfonamide [Example 296.0] | 170 |
| COCC(COC)n1c(NS(=O)(=O)[C@@H](C)[C@H](OC)c2ncc(Cl)cn2)nnc1[C@@H]1CCCO1 [Example 332.0, (1R,2S)-1-(5-chloro-2-pyrimidinyl)-N-(4-(1,3-dimethoxy-2-propanyl)-5-((2S)-tetrahydro-2-furanyl)-4H-1,2,4-triazol-3-yl)-1-methoxy-2-propanesulfonamide] | 14 |
| CO[C@H]1CCC[C@@H](OC)[C@@H]1n1c(NS(=O)(=O)[C@@H](C)[C@H](C)c2ncc(C)cn2)nnc1[C@@H]1CCCO1 (single isomer, unassigned) [Example 3.0, (2S,3R)-N-(4-((1r,2R,6S)-2,6-Dimethoxycyclohexyl)-5-((2S)-tetrahydro-2-furanyl)-4H-1,2,4-triazol-3-yl)-3-(5-methyl-2-pyrimidinyl)-2-butanesulfonamide or (2S,3R)-N-(4-((1r,2R,6S)-2,6-dimethoxycyclohexyl)-5-((2R)-tetrahydro-2-furanyl)-4H-1,2,4-triazol-3-yl)-3-(5-methyl-2-pyrimidinyl)-2-butanesulfonamide] | 1200 |
| CO[C@H](c1cnc(C)cn1)[C@H](C)S(=O)(=O)Nc1nnc([C@H]2CCOC2)n1C1(C)CC1 (single isomer, unassigned) [Example 129.0, (1R,2S)-1-methoxy-N-(4-(1-methylcyclopropyl)-5-((R)-tetrahydrofuran-3-yl)-4H-1,2,4-triazol-3-yl)-1-(5-methylpyrazin-2-yl)propane-2-sulfonamide or (1R,2S)-1-methoxy-N-(4-(1-methylcyclopropyl)-5-((S)-tetrahydrofuran-3-yl)-4H-1,2,4-triazol-3-yl)-1-(5-methylpyrazin-2-yl)propane-2-sulfonamide] | 2100 |
| COc1cnc([C@@H](C)[C@H](C)S(=O)(=O)Nc2nnc([C@@H]3COCCO3)n2-c2c(OC)ncnc2OC)nc1 (single isomer, unassigned) [Example 178.0, (2S,3R)-N-(4-(4,6-dimethoxy-5-pyrimidinyl)-5-((2R)-1,4-dioxan-2-yl)-4H-1,2,4-triazol-3-yl)-3-(5-methoxy-2-pyrimidinyl)-2-butanesulfonamide or (2S,3R)-N-(4-(4,6-dimethoxy-5-pyrimidinyl)-5-((2S)-1,4-dioxan-2-yl)-4H-1,2,4-triazol-3-yl)-3-(5-methoxy-2-pyrimidinyl)-2-butanesulfonamide] | 290 |
| COc1cccc(OC)c1-n1c(NS(=O)(=O)[C@@H](C)[C@H](OC)c2ncc(Cl)cn2)nnc1[C@H]1CC(=O)N(C)C1 (single isomer, unassigned) [Example 293.0, (1R,2S)-1-(5-chloropyrimidin-2-yl)-N-(4-(2,6-dimethoxyphenyl)-5-((R)-1-methyl-5-oxopyrrolidin-3-yl)-4H-1,2,4-triazol-3-yl)-1-methoxypropane-2-sulfonamide or (1R,2S)-1-(5-chloropyrimidin-2-yl)-N-(4-(2,6-dimethoxyphenyl)-5-((S)-1-methyl-5-oxopyrrolidin-3-yl)-4H-1,2,4-triazol-3-yl)-1-methoxypropane-2-sulfonamide] | 100 |
